Test results taken from patent US20240246964A1 (Arbutus Biopharma Corporation, priority 2021, published 2024).

How the values were obtained:
human PD-L1 = human PD-L1 (Homo sapiens (Human), UniProt Q9NZQ7); experiment: T cell activation luciferase reporter cell culture system (T Cell Activation Assay); assay type: cell-based; conditions: luciferase reporter assay; PD-L1 aAPC/CHO-K1 cells with PD-1 effector Jurkat T cells
[1] = biological target: PD-L1 His protein / PD-1 Fc protein (Homo sapiens (Human), UniProt Q9NZQ7); experiment: HTRF Assay (PD-1/PD-L1 interaction); assay type: binding; conditions: PD-L1 His 6 nM, PD-1 Fc 6 nM
Sequence of PD-L1 His protein / PD-1 Fc protein (Q9NZQ7 19-238): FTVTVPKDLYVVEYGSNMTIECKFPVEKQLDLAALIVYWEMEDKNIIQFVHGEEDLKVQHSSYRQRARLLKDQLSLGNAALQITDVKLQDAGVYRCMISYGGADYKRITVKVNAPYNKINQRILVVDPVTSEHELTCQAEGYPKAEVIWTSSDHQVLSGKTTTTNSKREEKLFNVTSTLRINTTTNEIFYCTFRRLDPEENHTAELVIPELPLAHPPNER

Sequence of human PD-L1 (Q9NZQ7 19-290): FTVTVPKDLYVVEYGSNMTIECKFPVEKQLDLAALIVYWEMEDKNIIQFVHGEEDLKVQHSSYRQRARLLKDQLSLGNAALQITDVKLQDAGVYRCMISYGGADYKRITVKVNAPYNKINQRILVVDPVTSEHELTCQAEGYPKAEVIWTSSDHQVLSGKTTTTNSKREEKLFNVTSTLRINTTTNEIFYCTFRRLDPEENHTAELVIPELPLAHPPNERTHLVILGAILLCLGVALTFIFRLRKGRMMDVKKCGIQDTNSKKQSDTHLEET

Structure (SMILES) | EC50 (human PD-L1) [nM] | IC50 [1] [nM]
COc1cc(-c2nccc(-c3cccc(-c4ccc(CNC5CCOCC5)c(OC)n4)c3F)c2Cl)ccc1CNC1CCOCC1 [Example 440, N-((6-(3-(3-Chloro-2-(3-methoxy-4-(((tetrahydro-2H-pyran-4-yl)amino)-methyl)phenyl)pyridin-4-yl)-2-fluorophenyl)-2-methoxypyridin-3-yl)methyl)tetrahydro-2H-pyran-4-amine] | 214 | 9.97
COc1cc(-c2nccc(-c3cccc(-c4ccc(CNC5CCOCC5)c(OC)n4)c3Cl)c2Cl)ccc1CN(C)C1CCOCC1 [Example 441, N-(4-(3-chloro-4-(2-chloro-3-(6-methoxy-5-(((tetrahydro-2H-pyran-4-yl)amino)methyl)pyridin-2-yl)phenyl)pyridin-2-yl)-2-methoxybenzyl)-N-methyltetrahydro-2H-pyran-4-amine] | 149 | 5.61
COc1cc(-c2nccc(-c3cccc(-c4ccc(CNC5CCOCC5)c(OC)n4)c3Cl)c2Cl)ccc1CN(C)C1CCN(C(C)=O)CC1 [Example 442, 1-(4-((4-(3-chloro-4-(2-chloro-3-(6-methoxy-5-(((tetrahydro-2H-pyran-4-yl)amino)methyl)pyridin-2-yl)phenyl)pyridin-2-yl)-2-methoxybenzyl)(methyl)amino)piperidin-1-yl)ethan-1-one] | 43.3 | 5.94
COCCNCc1ccc(-c2nccc(-c3cccc(-c4ccc(CNCCOC)c(OC)n4)c3Cl)c2Cl)cc1OC [Example 446, N-((6-(2-chloro-3-(3-chloro-2-(3-methoxy-4-(((2-methoxyethyl)amino)methyl)phenyl)pyridin-4-yl)phenyl)-2-methoxypyridin-3-yl)methyl)-2-methoxyethan-1-amine] | 31 | 3.75
COc1cc(-c2nccc(-c3cccc(-c4ccc(CNC5CCN(C(C)=O)CC5)c(OC)n4)c3F)c2F)ccc1CNC1CCN(C(C)=O)CC1 [Example 449, 1-(4-(((6-(3-(2-(4-(((1-acetylpiperidin-4-yl)amino)methyl)-3-methoxyphenyl)-3-fluoropyridin-4-yl)-2-fluorophenyl)-2-methoxypyridin-3-yl)methyl)amino)piperidin-1-yl)ethan-1-one] | ≥ 10000 | 12.9
COc1cc(-c2nccc(-c3cccc(-c4ccc(CN[C@H]5CC[C@H](OC)CC5)c(OC)n4)c3Cl)c2Cl)ccc1CN[C@H]1CC[C@H](OC)CC1 [Example 450, (1r,4r)-N-((6-(2-Chloro-3-(3-chloro-2-(3-methoxy-4-((((1r,4r)-4-methoxycyclohexyl)amino)methyl)phenyl)pyridin-4-yl)phenyl)-2-methoxypyridin-3-yl)methyl)-4-methoxycyclohexan-1-amine] | 54.7 | 2.36
COc1cc(-c2nccc(-c3cccc(-c4ccc(CNC5CCOCC5)c(OC)n4)c3F)c2F)ccc1CNC1CCOCC1 [Example 452, N-((6-(2-Fluoro-3-(3-fluoro-2-(3-methoxy-4-(((tetrahydro-2H-pyran-4-yl)amino)methyl)phenyl)pyridin-4-yl)phenyl)-2-methoxypyridin-3-yl)methyl)tetrahydro-2H-pyran-4-amine] | ≥ 10000 | 22.6
COc1cc(-c2nccc(-c3cccc(-c4ccc(CNC5CCN(C(C)=O)CC5)c(OC)n4)c3Cl)c2Cl)ccc1CN1CCOCC1 [Example 458, 1-(4-(((6-(2-Chloro-3-(3-chloro-2-(3-methoxy-4-(morpholinomethyl)phenyl)pyridin-4-yl)phenyl)-2-methoxypyridin-3-yl)methyl)amino)piperidin-1-yl)ethan-1-one] | 82.6 | 24.6
COc1cc(-c2nccc(-c3cccc(-c4ccc(CNC5CCOCC5)c(OC)n4)c3Cl)c2C)ccc1CNC1CCOCC1 [Example 462, N-((6-(2-chloro-3-(2-(3-methoxy-4-(((tetrahydro-2H-pyran-4-yl)amino)methyl)phenyl)-3-methylpyridin-4-yl)phenyl)-2-methoxypyridin-3-yl)methyl)tetrahydro-2H-pyran-4-amine] | 178 | 6.78
COc1cc(-c2nccc(-c3cccc(-c4ccc(CN5CC6(CCOCC6)C5)c(OC)n4)c3Cl)c2Cl)ccc1CN1CC2(CCOCC2)C1 [Example 470, 2-((6-(3-(2-(4-((7-Oxa-2-azaspiro[3.5]nonan-2-yl)methyl)-3-methoxyphenyl)-3-chloropyridin-4-yl)-2-chlorophenyl)-2-methoxypyridin-3-yl)methyl)-7-oxa-2-azaspiro[3.5]nonane] | 190 | 19.3
COc1cc(-c2nccc(-c3cccc(-c4ccc(CN5CC(C(C)(C)O)C5)c(OC)n4)c3Cl)c2Cl)ccc1CN1CC(C(C)(C)O)C1 [Example 471, 2-(1-((6-(2-Chloro-3-(3-chloro-2-(4-((3-(2-hydroxypropan-2-yl)azetidin-1-yl)methyl)-3-methoxyphenyl)pyridin-4-yl)phenyl)-2-methoxypyridin-3-yl)methyl)azetidin-3-yl)propan-2-ol] | 111 | 4.63
COc1cc(-c2nccc(-c3cccc(-c4ccc(CN(C)C[C@H]5CNC(=O)C5)c(OC)n4)c3Cl)c2Cl)ccc1CN(C)C[C@H]1CNC(=O)C1 [Example 473, (R)-4-((((6-(2-Chloro-3-(3-chloro-2-(3-methoxy-4-((methyl(((R)-5-oxopyrrolidin-3-yl)methyl)amino)methyl)phenyl)pyridin-4-yl)phenyl)-2-methoxypyridin-3-yl)methyl)(methyl)amino)methyl)pyrrolidin-2-one] | ≥ 10000 | 16.9
COc1nc(-c2cccc(-c3ccnc(-c4cc(OC)c5nc(CN6CC(C)(C#N)C6)cn5c4)c3Cl)c2Cl)ccc1CNC1CCN(C(C)=O)CC1 [Example 477, 1-((6-(4-(3-(5-(((1-Acetylpiperidin-4-yl)amino)methyl)-6-methoxypyridin-2-yl)-2-chlorophenyl)-3-chloropyridin-2-yl)-8-methoxyimidazo[1,2-a]pyridin-2-yl)methyl)-3-methylazetidine-3-carbonitrile] | 7480 | 21.4
COc1nc(-c2cccc(-c3ccnc(-c4cc(OC)c5nc(CNCC(F)F)cn5c4)c3Cl)c2Cl)ccc1CNC1CCN(C(C)=O)CC1 [Example 478, 1-(4-(((6-(2-Chloro-3-(3-chloro-2-(2-(((2,2-difluoroethyl)amino)methyl)-8-methoxyimidazo[1,2-a]pyridin-6-yl)pyridin-4-yl)phenyl)-2-methoxypyridin-3-yl)methyl)amino)piperidin-1-yl)ethan-1-one] | ≥ 10000 | 43.9
COc1cc(-c2nccc(-c3cccc(-c4ccc(CNC5CCN(C(C)=O)CC5)c(OC)n4)c3Cl)c2Cl)cc2c1CN(C1CCN(CC(=O)O)C1=O)CC2 (stereo not drawn) [Example 480, 2-(3-(6-(4-(3-(5-(((1-Acetylpiperidin-4-yl)amino)methyl)-6-methoxypyridin-2-yl)-2-chlorophenyl)-3-chloropyridin-2-yl)-8-methoxy-3,4-dihydroisoquinolin-2(1H)-yl)-2-oxopyrrolidin-1-yl)acetic acid] | 1490 | 3.9
COc1cc(-c2nccc(-c3cccc(-c4ccc(CN5CC6(C5)CN(C(C)=O)C6)c(OC)n4)c3Cl)c2Cl)ccc1CNC1CCN(C(C)=O)CC1 [Example 483, 1-(4-((4-(4-(3-(5-((6-acetyl-2,6-diazaspiro[3.3]heptan-2-yl)methyl)-6-methoxypyridin-2-yl)-2-chlorophenyl)-3-chloropyridin-2-yl)-2-methoxybenzyl)amino)piperidin-1-yl)ethan-1-one] | 39.7 | 2.63
COc1cc(-c2nccc(-c3cccc(-c4ccc(CN5CC6(CNC(=O)C6)C5)c(OC)n4)c3Cl)c2Cl)ccc1CN1CC2(C1)CN(C(C)=O)C2 [Example 493, 2-((6-(3-(2-(4-((6-Acetyl-2,6-diazaspiro[3.3]heptan-2-yl)methyl)-3-methoxyphenyl)-3-chloropyridin-4-yl)-2-chlorophenyl)-2-methoxypyridin-3-yl)methyl)-2,6-diazaspiro[3.4]octan-7-one] | 19.2 | 0.76
COc1cc(-c2nccc(-c3cccc(-c4ccc(CN5CC6(CNC(=O)C6)C5)c(OC)n4)c3Cl)c2Cl)ccc1CN1CC2(CNC2)C1 [Example 494, 2-((6-(3-(2-(4-((2,6-Diazaspiro[3.3]heptan-2-yl)methyl)-3-methoxyphenyl)-3-chloropyridin-4-yl)-2-chlorophenyl)-2-methoxypyridin-3-yl)methyl)-2,6-diazaspiro[3.4]-octan-7-one] | 61.7 | 5.21
COc1cc(-c2nccc(-c3cccc(-c4ccc(CN(C)CC5CN(C(C)=O)C5)c(OC)n4)c3Cl)c2Cl)ccc1CN(C)CC1CN(C(C)=O)C1 [Example 499, 1-(3-((((6-(3-(2-(4-((((1-Acetylazetidin-3-yl)methyl)(methyl)amino)methyl)-3-methoxyphenyl)-3-chloropyridin-4-yl)-2-chlorophenyl)-2-methoxypyridin-3-yl)methyl)(methyl)amino)methyl)azetidin-1-yl)ethan-1-one] | 88.5 | 2.07
COCC1CCN(Cc2ccc(-c3nccc(-c4cccc(-c5ccc(CNC6CCN(C(C)=O)CC6)c(OC)n5)c4Cl)c3Cl)cc2OC)CC1 [Example 509, 1-(4-(((6-(2-Chloro-3-(3-chloro-2-(3-methoxy-4-((4-(methoxymethyl)piperidin-1-yl)methyl)phenyl)pyridin-4-yl)phenyl)-2-methoxypyridin-3-yl)methyl)amino)piperidin-1-yl)ethan-1-one] | 100 | 9.77
COc1cc(-c2nccc(-c3cccc(-c4ccc(CNC5CCN(C(C)=O)CC5)c(OC)n4)c3Cl)c2Cl)ccc1CNCC(F)F [Example 513, 1-(4-(((6-(2-Chloro-3-(3-chloro-2-(4-(((2,2-difluoroethyl)amino)methyl)-3-methoxyphenyl)pyridin-4-yl)phenyl)-2-methoxypyridin-3-yl)methyl)amino)piperidin-1-yl)ethan-1-one] | 685 | 47.1
